The text below walks through data of patent US20190275049A1, “Combination of an EGFR T790M Inhibitor and a CDK Inhibitor for the Treatment of Non-Small Cell Lung Cancer” (PFIZER INC., priority 2016, published 2019).

In data set [1] the test system is H1975 xenograft tumors. Description: H1975 xenograft model, tumor growth inhibition. Type of data set: in vivo, nude/nude (nu/nu) female mice. To be noted: oral, daily. An excerpt: Four- to six-week-old nude/nude (nu/nu) female mice were obtained from Charles River Laboratories (Hollister, Calif., USA) and maintained in pressurized ventilated caging at the Pfizer La Jolla animal facility. All studies were approved by Pfizer Institutional Animal Care and Use Committees. Xenograft tumors were established by subcutaneously implanting 5×10^6 H1975 cells suspended 1:1 (v/v) with reconstituted basement membrane (Matrigel, BD Biosciences) in nu/nu mice. […] Tumor dimensions were measured with vernier calipers and tumor volumes were calculated using the formula of π/6×larger diameter x (smaller diameter)^2. […] Tumor regression percentage was calculated as 100×(1−ΔT/starting tumor size).

In data set [2] the test system is H1975 cell line. The data set is described as follows: H1975 duration of response study, T75 flask format. It is filed as cell-based, human. To be noted: for Time Elapsed: H1975, T75 flask, single agent: 100 nM palbociclib or 600 nM PF-06747775; for delay in time required to reach a specific total cell number compared to DMSO control (FIG. 1) / number of days for 5×10^5 cells to grow to 8×10^6 cells, Independent Experiment Number 1 / number of days for 5×10^5 cells to grow to 8×10^6 cells, Independent Experiment Number 2: H1975, PF-06747775 600 nM, palbociclib 100 nM, single agents or combination. The method, then:
(§1) This experimental approach provides a model of DOR and a means for testing whether combination regimens can increase or extend DOR (Tricker E M, Xu C, Uddin S, et al. Combined EGFR/MEK Inhibition Prevents the Emergence of Resistance in EGFR-Mutant Lung Cancer. Cancer Discov 2015; 5(9):960-71). […] Two different assay formats were used to facilitate quantitative assessment of time to regrowth and to address reproducibility in orthogonal formats.
H1975 cells were seeded (5×10^5 cells per flask) in T75 flasks (one or two flasks per treatment condition). […] Time was monitored. When growth reached 70-90% confluence, the cells were harvested, counted, and half of the collected cells were used to seed a fresh T75 flask. Once growth reached 70-90% confluence again, this process was repeated, then repeated again and again until a constant growth rate was achieved. Results were plotted as total live cells counted over time, for example, at each harvest, the cell number counted at that harvest was added to previous cell count numbers, then plotted as total live cells at that time point.

The nature of data set [3]: Plasma drug levels in H1975 xenograft study (blood samples day 15).
Description: Drugs were formulated once per in vivo experiment and were dosed daily at a concentration of 10 mL/kg through oral gavage.
Data set [4] relates to Cytochrome P-450 3A4. To be noted: in vivo; cited from earlier work.
For data set [5], the system named is H1975 cell line. The data set is described as follows: H1975 duration of response study, 96-well plate format. Type of data set: cell-based, human. To be noted: PF-06747775 600 nM, palbociclib 100 nM, single agents or combination.
Description: as §1
A 96-well plate format assay was adapted from a published report (Tricker, E., et al., “Combined EGFR/MEK Inhibition Prevents the Emergence of Resistance in EGFR-Mutant Lung Cancer,” Cancer Discovery, 2015, 960-971, vol. 5, no. 9). […] Time was monitored. […] Non-terminal reading of live cells was conducted weekly using an IncuCyte instrument (microscopy-based cell counting, Essen Bioscience, Ann Arbor, Mich., USA). At selected time points throughout the treatment duration, a terminal reading of live cells by Cell Titer Glow method (cell ATP-based counting, Promega, Madison, Wis., USA) was used to confirm cell counts over time and at the end of study. Results were plotted as percent of wells reaching a designated confluency (e.g. 50% confluent) at different time points throughout the treatment period.

In data set [6] the test system is PC9 cell line. Description: PC9 duration of response study, T75 flask format. Type of data set: cell-based, human. To be noted: method of Example 2 (PF-06747775 600 nM, palbociclib 100 nM).
Data set [7] has as its system HCC4006 cell line. The data set is described as follows: HCC4006 duration of response study, T75 flask format. It is filed as cell-based, human. To be noted: method of Example 2 (PF-06747775 600 nM, palbociclib 100 nM).
Data set [8] deals with HCC827 cell line. Description: HCC827 duration of response study, T75 flask format. Type of data set: cell-based, human. To be noted: method of Example 2 (PF-06747775 600 nM, palbociclib 100 nM).

In the case of `C=CC(=O)N[C@@H]1CN(c2nc(Nc3cn(C)nc3OC)c3ncn(C)c3n2)C[C@H]1F` [PF-06747775, N-((3R,4R)-4-fluoro-1-(6-((3-methoxy-1-methyl-1H-pyrazol-4-yl)amino)-9-methyl-9H-purin-2-yl)pyrrolidin-3-yl)acrylamide], in data set [1] (PF-06747775 10 mpk, 10 days), the “anti-tumor efficacy of single agent after 10 days of dosing” value is given as “less than the desired comparator level”. The “effect on tumor growth inhibition (TGI) (FIG. 2)” value (from here on “effect on tumor growth inhibition”) in data set [1] (PF-06747775 single agent, 10/20 mpk (20 mpk from day 11)) is given as “moderate effect”. For the same compound, in data set [2], the “Time Elapsed” value is 21 days; the “delay in time required to reach a specific total cell number compared to DMSO control (FIG. 1)” value was “significant delay”; the “number of days for 5×10^5 cells to grow to 8×10^6 cells, Independent Experiment Number 1” value amounted to 15 days; the “number of days for 5×10^5 cells to grow to 8×10^6 cells, Independent Experiment Number 2” value is reported as 21 days. The “Plasma Average Free Drug Concentration Over the 24 hour Dosing Interval, PF-06747775” value in data set [3] (PF-06747775 10/20 mpk alone) worked out at 95 nM. In addition, the “metabolism by Cytochrome P-450 3A4” value in data set [4] is “metabolized in vivo by this same enzyme”. In addition, in data set [5], the “number of days for 350 cells per well to grow to 50% of the wells reaching 50% confluence, Independent Experiment Number 1” value came out at 16 days and the “number of days for 350 cells per well to grow to 50% of the wells reaching 50% confluence, Independent Experiment Number 2” value worked out at 19 days. For the same compound, in data set [6], the “PC9 Time elapsed (days) for 5×10^5 cells to grow to 8×10^6 cells” value is recorded as 73 days. For the same compound, the “HCC4006 Time elapsed (days) for 5×10^5 cells to grow to 8×10^6 cells” value in data set [7] is listed as 51 days.

For the compound `CC(=O)c1c(C)c2cnc(Nc3ccc(N4CCNCC4)cn3)nc2n(C2CCCC2)c1=O` [palbociclib, 6-acetyl-8-cyclopentyl-5-methyl-2-(5-piperazin-1-yl-pyridin-2-ylamino)-8H-pyrido[2,3-d]pyrimidin-7-one], the “effect on tumor growth inhibition” value in data set [1] (palbociclib single agent, 70 mpk) was “minor effect”. The “effect on tumor growth inhibition” value in data set [1] (palbociclib single agent, lower doses (22 mpk and 7 mpk)) is listed as “no effect”. Moreover, in data set [2], the “Time Elapsed” value came to 5 days; the “delay in time required to reach a specific total cell number compared to DMSO control (FIG. 1)” value is on record as “slight delay, if any”; the “number of days for 5×10^5 cells to grow to 8×10^6 cells, Independent Experiment Number 1” value amounted to 4 days; the “number of days for 5×10^5 cells to grow to 8×10^6 cells, Independent Experiment Number 2” value is given as 5 days. In addition, the “Plasma Average Free Drug Concentration Over the 24 hour Dosing Interval, Palbociclib” value in data set [3] (Palbo 7 mpk alone) stood at 6 nM. Besides, the “Plasma Average Free Drug Concentration Over the 24 hour Dosing Interval, Palbociclib” value in data set [3] (Palbo 22 mpk alone) is 45 nM. Also, in data set [3] (Palbo 70 mpk alone), the “Plasma Average Free Drug Concentration Over the 24 hour Dosing Interval, Palbociclib” value stood at 127 nM. For the same compound, in data set [8], the “HCC827 (independent experiment) Number 1 (days) for 5×10^5 cells to grow to 8×10^6 cells” value stood at 11 days and the “HCC827 (independent experiment) Number 2 (days) for 5×10^5 cells to grow to 8×10^6 cells” value is listed as 11 days. Moreover, in data set [5], the “number of days for 350 cells per well to grow to 50% of the wells reaching 50% confluence, Independent Experiment Number 1” value is given as 7 days and the “number of days for 350 cells per well to grow to 50% of the wells reaching 50% confluence, Independent Experiment Number 2” value was determined as 7 days. Also, the “PC9 Time elapsed (days) for 5×10^5 cells to grow to 8×10^6 cells” value in data set [6] is listed as 5 days. Further, the “HCC4006 Time elapsed (days) for 5×10^5 cells to grow to 8×10^6 cells” value in data set [7] came to 18 days.
